In the supplement of paper PMC11208160:

Assay: recombinant UMI read abundance after kanamycin selection (control-corrected) (log10(CPM+1)); higher = more efficient recombination; extreme values may be limits of the assay; sequences stand for … in AGTGCAGAGAAAATCGGCCAGTTTTCTCTGCCTGCAGTCCGCATGCCGTGGGACCCCTTGGGTTCTAACCTGTTGCCTAGATTTATGCAGCGGACTGCCTTTCTCCCAAAGTGATAAACCGG…AGGTTGGTTTCACT; site = the 11-nt donor
In short: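 In a pooled Escherichia coli screen for the IS621 bridge recombinase, donor and donor-binding-loop pairs were each placed with a 12-nt UMI on a plasmid bearing a promoterless kanamycin gene. This library was co-electroporated with a target plasmid encoding a fixed target and T7-inducible recombinase, and cells were plated either on IPTG (0.07 mM) plus kanamycin or without selection, in two replicates each. Recombinant UMIs were PCR-amplified across the donor–target junction and sequenced, and counts were converted to CPM, averaged over replicates, scaled by control-derived factors and reported as log10(CPM+1).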
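Also: IS621 bridge recombinase in Escherichia coli cells against a fixed T5 target plasmid.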

Sequence	recombinant UMI read abundance (log10)
CAAGCCGCATGGACCGGTTTTCCCGGTAATCCGTATTTGCT (site CAAGCGGCTAG)	0.00324
CAAGCCGCATGGACCGGTTTTCCCGGTAATCCGTATTTGCT (site CAAGCTGCTAG)	0
CAAGCGCCATGGACCGGTTTTCCCGGTAATCCGTATTTGGG (site CAAGCGCCTCA)	0.0177
CAAGCGCCATGGACCGGTTTTCCCGGTAATCCGTATTTGGG (site CAAGCGCCTCC)	0.0155
CAAGCGCCATGGACCGGTTTTCCCGGTAATCCGTATTTGGG (site CAAGCGCCTCG)	0.0252
CAAGCGCCATGGACCGGTTTTCCCGGTAATCCGTATTTGGG (site CAAGCGCCTCT)	0.0195
CAAGCGCCATGGACCGGTTTTCCCGGTAATCCGTATTTGTG (site AAAGCGCCTCA)	0.0176
CAAGCGCCATGGACCGGTTTTCCCGGTAATCCGTATTTGTG (site CAAACGCCTCA)	0.0285
CAAGCGCCATGGACCGGTTTTCCCGGTAATCCGTATTTGTG (site CAACCGCCTCA)	0.0221
CAAGCGCCATGGACCGGTTTTCCCGGTAATCCGTATTTGTG (site CAAGAGCCTCA)	0.0105
CAAGCGCCATGGACCGGTTTTCCCGGTAATCCGTATTTGTG (site CAAGCACCTCA)	0.0231
CAAGCGCCATGGACCGGTTTTCCCGGTAATCCGTATTTGTG (site CAAGCCCCTCA)	0.0168
CAAGCGCCATGGACCGGTTTTCCCGGTAATCCGTATTTGTG (site CAAGCGACTCA)	0.0185
CAAGCGCCATGGACCGGTTTTCCCGGTAATCCGTATTTGTG (site CAAGCGCCTAA)	0.00762
CAAGCGCCATGGACCGGTTTTCCCGGTAATCCGTATTTGTG (site CAAGCGCCTCA)	0.0111
CAAGCGCCATGGACCGGTTTTCCCGGTAATCCGTATTTGTG (site CAAGCGCCTCC)	0.0342
CAAGCGCCATGGACCGGTTTTCCCGGTAATCCGTATTTGTG (site CAAGCGCCTCG)	1.36
CAAGCGCCATGGACCGGTTTTCCCGGTAATCCGTATTTGTG (site CAAGCGCCTCT)	0.218
CAAGCGCCATGGACCGGTTTTCCCGGTAATCCGTATTTGTG (site CAAGCGCCTGA)	0.706
CAAGCGCCATGGACCGGTTTTCCCGGTAATCCGTATTTGTG (site CAAGCGCCTTA)	0.627
CAAGCGCCATGGACCGGTTTTCCCGGTAATCCGTATTTGTG (site CAAGCGGCTCA)	0.00842
CAAGCGCCATGGACCGGTTTTCCCGGTAATCCGTATTTGTG (site CAAGCGTCTCA)	1.85
CAAGCGCCATGGACCGGTTTTCCCGGTAATCCGTATTTGTG (site CAAGCTCCTCA)	0.185
CAAGCGCCATGGACCGGTTTTCCCGGTAATCCGTATTTGTG (site CAAGGGCCTCA)	0.0216
CAAGCGCCATGGACCGGTTTTCCCGGTAATCCGTATTTGTG (site CAAGTGCCTCA)	0.0157

Sequence	recombinant UMI read abundance (log10)
CAAGCGCCATGGACCGGTTTTCCCGGTAATCCGTATTTGTG (site CAATCGCCTCA)	0.0117
CAAGCGCCATGGACCGGTTTTCCCGGTAATCCGTATTTGTG (site CACGCGCCTCA)	0.0238
CAAGCGCCATGGACCGGTTTTCCCGGTAATCCGTATTTGTG (site CAGGCGCCTCA)	0.0473
CAAGCGCCATGGACCGGTTTTCCCGGTAATCCGTATTTGTG (site CATGCGCCTCA)	0.047
CAAGCGCCATGGACCGGTTTTCCCGGTAATCCGTATTTGTG (site CCAGCGCCTCA)	0.00697
CAAGCGCCATGGACCGGTTTTCCCGGTAATCCGTATTTGTG (site CGAGCGCCTCA)	0.0092
CAAGCGCCATGGACCGGTTTTCCCGGTAATCCGTATTTGTG (site CTAGCGCCTCA)	0.0166
CAAGCGCCATGGACCGGTTTTCCCGGTAATCCGTATTTGTG (site GAAGCGCCTCA)	0.0137
CAAGCGCCATGGACCGGTTTTCCCGGTAATCCGTATTTGTG (site TAAGCGCCTCA)	0.0306
CAAGCGGCATGGACCGGTTTTCCCGGTAATCCGTATTTGCT (site CAAGCAGCTAG)	0.584
CAAGCGGCATGGACCGGTTTTCCCGGTAATCCGTATTTGCT (site CAAGCCGCTAG)	0
CAAGCGGCATGGACCGGTTTTCCCGGTAATCCGTATTTGCT (site CAAGCGGCTAG)	1.72
CAAGCGGCATGGACCGGTTTTCCCGGTAATCCGTATTTGCT (site CAAGCTGCTAG)	0
CAAGCTGCATGGACCGGTTTTCCCGGTAATCCGTATTTGGG (site CAAGCTGCTCC)	0.0432
CAAGGACCATGGACCGGTTTTCCCGGTAATCCGTATTTGGG (site CAAGGACCTCC)	0
CAAGGACCATGGACCGGTTTTCCCGGTAATCCGTATTTGGG (site CCAGGACCTCC)	0.0136
CAAGGACCATGGACCGGTTTTCCCGGTAATCCGTATTTGGG (site CGAGGACCTCC)	0.0074
CAAGGACCATGGACCGGTTTTCCCGGTAATCCGTATTTGGG (site CTAGGACCTCC)	0.0255
CAAGGCACATGGACCGGTTTTCCCGGTAATCCGTATTTGGG (site CAAGACACTCC)	0.00686
CAAGGCACATGGACCGGTTTTCCCGGTAATCCGTATTTGGG (site CAAGCCACTCC)	0.0196
CAAGGCACATGGACCGGTTTTCCCGGTAATCCGTATTTGGG (site CAAGGCACTCC)	0.0216
CAAGGCACATGGACCGGTTTTCCCGGTAATCCGTATTTGGG (site CAAGTCACTCC)	0.397
CAAGGCCCATGGACCGGTTTTCCCGGTAATCCGTATTTGTT (site CAAGGCCCTAA)	0.0195
CAAGGCCCATGGACCGGTTTTCCCGGTAATCCGTATTTGTT (site CACGGCCCTAA)	0.0285
CAAGGCCCATGGACCGGTTTTCCCGGTAATCCGTATTTGTT (site CAGGGCCCTAA)	0.0144

Sequence	recombinant UMI read abundance (log10)
CAAGGCCCATGGACCGGTTTTCCCGGTAATCCGTATTTGTT (site CATGGCCCTAA)	0.0187
CAAGGCGCATGGACCGGTTTTCCCGGTAATCCGTATTTGGA (site CAAGGCGCTTC)	1.42
CAAGGGCCATGGACCGGTTTTCCCGGTAATCCGTATTTGTG (site CAAGAGCCTCA)	0.431
CAAGGGCCATGGACCGGTTTTCCCGGTAATCCGTATTTGTG (site CAAGCGCCTCA)	0.0177
CAAGGGCCATGGACCGGTTTTCCCGGTAATCCGTATTTGTG (site CAAGGGCCTCA)	0.314
CAAGGGCCATGGACCGGTTTTCCCGGTAATCCGTATTTGTG (site CAAGTGCCTCA)	0.115
CAAGGGGCATGGACCGGTTTTCCCGGTAATCCGTATTTGTT (site CAAGGGGCTAA)	2.43
CAAGGTGCATGGACCGGTTTTCCCGGTAATCCGTATTTGAT (site CAAGGTGCTAT)	2.52
CAAGGTGCATGGACCGGTTTTCCCGGTAATCCGTATTTGAT (site CCAGGTGCTAT)	0.8
CAAGGTGCATGGACCGGTTTTCCCGGTAATCCGTATTTGAT (site CGAGGTGCTAT)	1.13
CAAGGTGCATGGACCGGTTTTCCCGGTAATCCGTATTTGAT (site CTAGGTGCTAT)	1.67
CAAGTAGCATGGACCGGTTTTCCCGGTAATCCGTATTTGCT (site CAAGAAGCTAG)	0
CAAGTAGCATGGACCGGTTTTCCCGGTAATCCGTATTTGCT (site CAAGCAGCTAG)	0.378
CAAGTAGCATGGACCGGTTTTCCCGGTAATCCGTATTTGCT (site CAAGGAGCTAG)	0.0678
CAAGTAGCATGGACCGGTTTTCCCGGTAATCCGTATTTGCT (site CAAGTAGCTAG)	1.66
CAAGTATCATGGACCGGTTTTCCCGGTAATCCGTATTTGAG (site CAAGTATCTCT)	3.07
CAAGTATCATGGACCGGTTTTCCCGGTAATCCGTATTTGAG (site CTAGTATCTGT)	0
CAAGTCACATGGACCGGTTTTCCCGGTAATCCGTATTTGGA (site CAAGTCACTAC)	0.358
CAAGTCACATGGACCGGTTTTCCCGGTAATCCGTATTTGGA (site CAAGTCACTCC)	0.638
CAAGTCACATGGACCGGTTTTCCCGGTAATCCGTATTTGGA (site CAAGTCACTGC)	0.803
CAAGTCACATGGACCGGTTTTCCCGGTAATCCGTATTTGGA (site CAAGTCACTTC)	2.03
CAAGTCACATGGACCGGTTTTCCCGGTAATCCGTATTTGTG (site CAAGTCACTCA)	0.0199
CAAGTCACATGGACCGGTTTTCCCGGTAATCCGTATTTGTG (site CAAGTCACTCC)	0.0385
CAAGTCACATGGACCGGTTTTCCCGGTAATCCGTATTTGTG (site CAAGTCACTCG)	0.151
CAAGTCACATGGACCGGTTTTCCCGGTAATCCGTATTTGTG (site CAAGTCACTCT)	0.103
